# Reference: ChEMBL document CHEMBL4480398, “1,2,4-Triazolo[1,5-a]pyrimidines in drug design” (Eur J Med Chem, 2019)
# What was measured:
# [1] = biological target: Dihydroorotate dehydrogenase (quinone), mitochondrial (Homo sapiens, UniProt Q02127); assay: Inhibition of human DHODH expressed in Escherichia coli by DCIP staining-based spectrophotometric analysis
# [2] = Inhibition of Plasmodium falciparum DHODH expressed in Escherichia coli by DCIP staining-based spectrophotometric analysis
# [3] = Intrinsic clearance in human liver microsomes assessed per mg protein by LC-MS analysis; format: ADME, Microsome; conditions: read-out: CLH
# [4] = Aqueous solubility of compound; format: physicochemical; conditions: buffer
# [5] = Intrinsic clearance in mouse liver microsomes assessed per mg protein by LC-MS analysis; format: ADME, Microsome; conditions: read-out: CLH
# [6] = tested on: Trypanosoma brucei; assay: Antitrypanosomal activity against Trypanosoma brucei Lister 427 bloodstream form after 48 hrs by CellTiter-Glo luminescent cell viability assay; format: functional, organism-based; conditions: Lister 427, 48 h
# [7] = tested on: Leishmania donovani; assay: Antileishmanial activity against Leishmania donovani MHOM/SD/62/1S-CL2D axenic amastigote after 48 hrs by CellTiter-Glo luminescent cell viability assay; format: functional, organism-based
# [8] = tested on: Trypanosoma cruzi; assay: Antitrypanosomal activity against Trypanosoma cruzi Tulahuen amastigotes expressing beta-galactosidase infected in mouse NIH3T3 cells after 6 days; format: functional, organism-based; conditions: NIH3T3, 144 h
# [9] = Cytotoxicity against mouse primary peritoneal macrophages; format: cell-based, Peritoneal macrophage
# [10] = Oral bioavailability in mouse at 20 mg/kg administered as single dose; format: ADME, organism-based; conditions: in vivo
# [11] = biological target: Fatty acid-binding protein, adipocyte (Homo sapiens, UniProt P15090); assay: Binding affinity to recombinant FABP4 (unknown origin) expressed in Escherichia coli by sypro orange dye-based TdF assay
# Sequence of Fatty acid-binding protein, adipocyte (P15090 whole entry): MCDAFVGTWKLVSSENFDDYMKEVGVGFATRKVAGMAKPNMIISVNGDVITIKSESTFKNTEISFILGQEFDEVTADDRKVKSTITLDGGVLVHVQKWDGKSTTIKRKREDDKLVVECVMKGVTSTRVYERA
# [12] = Protein binding in human plasma by ultracentrifugation method; format: ADME, cell-free
# [13] = Lipophilicity, log D of the compound at pH 7.4 by shake flask method; format: physicochemical; conditions: buffer
# [14] = Cytotoxicity against mouse NIH/3T3 cells after 5 days by CellTiter-Glo luminescent cell viability assay; format: cell-based, NIH3T3
# [15] = Dissociation constant, pKa of compound; format: physicochemical
# Sequence of Dihydroorotate dehydrogenase (quinone), mitochondrial (Q02127 whole entry): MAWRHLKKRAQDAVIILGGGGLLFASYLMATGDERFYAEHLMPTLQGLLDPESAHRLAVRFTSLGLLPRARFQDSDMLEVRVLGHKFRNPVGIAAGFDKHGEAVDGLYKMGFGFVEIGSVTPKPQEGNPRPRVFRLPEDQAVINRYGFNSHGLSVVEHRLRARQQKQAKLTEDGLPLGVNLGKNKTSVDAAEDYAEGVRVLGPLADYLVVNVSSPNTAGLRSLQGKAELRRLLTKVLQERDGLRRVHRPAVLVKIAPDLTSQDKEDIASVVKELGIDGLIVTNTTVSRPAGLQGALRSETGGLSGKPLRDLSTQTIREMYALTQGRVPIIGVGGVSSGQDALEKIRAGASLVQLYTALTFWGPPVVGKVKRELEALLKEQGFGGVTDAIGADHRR
structure (smiles),measurement,setting,value
Cc1cc(Nc2cc(F)c(C(F)(F)F)c(F)c2)n2ncnc2n1,IC50,[1],> 30000 nM
same,IC50,[2],190 nM
same,microsomal CLint,[3],< 5 µL/min/mg
same,solubility,[4],9 to 18 µM
same,microsomal CLint,[5],< 6 µL/min/mg
O=C(Nc1ccc(Cl)c(-c2nc3ncccc3o2)c1)c1ccco1,EC50,[6],150000 nM
same,EC50,[7],7300 nM
same,EC50,[8],75 nM
same,CC50,[9],> 50000 nM
Cc1nc(C)c(C(=O)Nc2ccc(F)c(-c3nc4ncc(-c5ccccn5)cn4n3)c2)o1,bioavailability,[10],< 34%
same,EC50,[6],70 nM
O=c1cc(CNc2cccc(Cl)c2C2CC2)[nH]c2nc(-c3ccccc3)nn12,Kd,[11],20 nM
Cc1nc(C)c(C(=O)Nc2ccc(F)c(-c3nc4ncc(-c5ccccc5)cn4n3)c2)o1,bioavailability,[10],< 34%
same,EC50,[6],22 nM
same,EC50,[7],71 nM
same,EC50,[8],16 nM
Cc1cc(Nc2ccc(C(F)(F)F)nc2)n2nc(C(C)(F)F)nc2n1,IC50,[1],> 100000 nM
same,IC50,[2],14 nM
same,fraction unbound,[12]; read-out: PPB,0.5
same,logD,[13],2.5
same,solubility,[4],> 100 µM
same,microsomal CLint,[5],5.1 µL/min/mg
COc1ccc(Cl)cc1NCc1cc(=O)n2nc(-c3ccccc3)nc2[nH]1,Kd,[11],860 nM
CC(C)OC(=O)Nc1cnc2nc(-c3cc(NC(=O)c4ccco4)ccc3Cl)nn2c1,EC50,[6],79 nM
same,EC50,[7],350 nM
same,EC50,[8],55 nM
same,CC50,[9],14000 nM
same,CC50 at 120 h,[14],9000 nM
Cc1c(Cl)cccc1NCc1cc(=O)n2nc(-c3ccccc3)nc2[nH]1,Kd,[11],10 nM
same,pKa,[15],4.6
Cc1cc(Nc2ccc3ccccc3c2)n2ncnc2n1,IC50,[1],> 200000 nM
same,solubility,[4],45 to 90 µM
Cc1cc(Nc2ccc(S(F)(F)(F)(F)F)cc2)n2nc(C(C)(F)F)nc2n1 [DSM-265],IC50,[2],33 nM
same,microsomal CLint,[3],< 5 µL/min/mg
same,PPB,[12],90.4%
same,solubility,[4],70 to 140 µM
same,microsomal CLint,[5],10.1 µL/min/mg
